Experimental findings from PubChem BioAssay (NCI) are described below.

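Test compounds were applied to cells in 96-well plates for 48 hours at 5 doses. The concentration for full growth arrest is given as TGI.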 Where a SMILES comes first, the peptide text is derived from it.

Holding throughout (experiment): NCI tumour cell line growth inhibition, 48 h
Assay [1] relates to TK-10 renal.
The test system of assay [2] is SR leukemia.
The test system of assay [3] is SK-MEL-28 melanoma.
Assay [4] relates to NCI-H522 lung.
In assay [5] the test system is SK-MEL-2 melanoma.
For assay [6], the system named is IGROV1 ovarian.
The subject of assay [7] is UACC-257 melanoma.
The subject of assay [8] is NCI-H23 lung.
For assay [9], the system named is LOX IMVI melanoma.

For the compound `C=CC1(NS(=O)(=O)c2ccc(C)cc2)CCC(C(C)(C)C)CC1` (stereo not drawn), the TGI in assay [1], in assay [2], in assay [3], in assay [4], in assay [5] and in assay [6] was greater than 100 µM each time. In addition, the TGI in [7] was greater than 100 µM.

`CC1=C(Cl)C=CP(=O)(OC(C)C)C1` (stereo not drawn): the TGI is greater than 100 µM in [8]; greater than 100 µM in [1]; greater than 100 µM in [2]; greater than 100 µM in [3]; 87.7 µM in assay [4]; greater than 100 µM in assay [5]. In addition, the TGI in assay [6] and in [7] was greater than 100 µM each time.

For the compound `COC(=O)C1C=NNC1C(=O)OC` (stereo not drawn), the TGI in assay [8], in assay [1], in [9], in assay [4], in assay [5] and in assay [6] was greater than 100 µM throughout. Also, in assay [7], the TGI was greater than 100 µM.

Consider `COc1ccc(-c2cc(-c3cc(Cl)cc(Br)c3O)[nH]c(=O)n2)cc1`, for which the TGI in [8] is 29.4 µM; in assay [1] it was 47.3 µM; in assay [9], 33.2 µM; in assay [2], 51.8 µM; in assay [3] it was 44.7 µM; in assay [4] it was 30 µM. For the same compound, the TGI in assay [6] worked out at 52.4 µM; in assay [7] it was 42.2 µM.

As to `Cc1cccc(N2C(=O)C(=O)C(c3nc4ccccc4s3)/C(=N/NC(=S)NN)C2=O)c1C` (stereo not drawn), the TGI in [8], in assay [1], in assay [9], in assay [3], in assay [4] and in assay [5] was greater than 100 µM throughout. In addition, the TGI in assay [6] and in [7] was greater than 100 µM in each case.

As to `C#CC1(O)c2ccccc2C(=O)c2ccccc21`, the TGI in assay [8], in [1], in assay [9], in assay [2], in assay [3] and in assay [4] was greater than 100 µM in each case. For the same compound, the TGI in assay [5], in assay [6] and in assay [7] was greater than 100 µM throughout.

In the case of `Oc1ccc(CCNCc2cc3c(cc2Br)OCO3)cc1`, the TGI in assay [8] is greater than 100 µM; in assay [1], greater than 100 µM; in [9], greater than 100 µM; in [2] it was greater than 100 µM; in assay [3], 98.2 µM; in assay [4], greater than 100 µM. The TGI is 74.6 µM in assay [5], greater than 100 µM in assay [6] and greater than 100 µM in assay [7].

As for `Clc1ccc2nc(-c3ccccc3)nc(Cl)c2c1`, the TGI was greater than 100 µM in assay [8]; 63.9 µM in [1]; greater than 100 µM in [2]; greater than 100 µM in [3]; greater than 100 µM in assay [5]; greater than 100 µM in assay [6]. In addition, in assay [7], the TGI is greater than 100 µM.

On to `CCCCN[C@H]1C2C3CC4C5CC(C42)C1(C)C53` (stereo partly drawn), for which the TGI in [1], in assay [9], in [2], in [3], in assay [4] and in [5] was greater than 100 µM each time. The TGI in assay [6] and in assay [7] was greater than 100 µM each time.

For `Cc1ccc(NC(=S)SCCC(=O)O)cc1`, the TGI in [8], in [1], in assay [9], in [2], in assay [3] and in [4] was greater than 100 µM throughout. For the same compound, the TGI in [5] and in [7] was greater than 100 µM throughout.

Consider `O=S1(=O)CCCS(=O)(=O)C(c2ccccc2)=C1c1ccccc1`, for which the TGI in [8] was greater than 100 µM; in assay [1] it was greater than 100 µM; in assay [9], greater than 100 µM; in assay [2] it was greater than 100 µM; in [3], greater than 100 µM; in assay [4], 89.9 µM. For the same compound, the TGI in [5], in assay [6] and in assay [7] was greater than 100 µM throughout.

As to `CCC(C)C1NC(=O)C2CCCN2C(=O)CNC(=O)C(C)NC(=O)C(Cc2ccccc2)NC(=O)C(C(C)C)NC1=O` (stereo not drawn) (cyclo(GPIVFA); configuration not given here), the TGI in assay [8], in assay [1], in assay [9], in assay [2], in [3] and in assay [6] was greater than 100 µM in each case. The TGI in [7] is greater than 100 µM.

`CCOC(=O)[C@H]1Nc2ccc([N+](=O)[O-])cc2C2c3ccccc3CC21` (stereo partly drawn): the TGI is 73.6 µM in assay [8]; 77.3 µM in assay [1]; 33.2 µM in assay [9]; greater than 100 µM in [2]; 31.9 µM in assay [3]; 29.3 µM in assay [4]. The TGI in assay [5] was 72.3 µM; in [6], greater than 100 µM; in assay [7], 40.2 µM.

For the compound `O=[N+]([O-])c1cc(Cl)ccc1OCc1ccccc1`, the TGI in assay [8] is 96.5 µM; in [1], greater than 100 µM; in assay [9], greater than 100 µM; in [2], greater than 100 µM; in [3] it was greater than 100 µM; in assay [5] it was greater than 100 µM. Also, the TGI in [6] and in assay [7] was greater than 100 µM in each case.

On to `Cc1ccc(-c2cc(=O)c3cc(C)c(C)c(C(=O)O)c3o2)cc1N`, for which the TGI in assay [8], in assay [1], in [9], in assay [3], in [4] and in assay [5] was greater than 100 µM each time. Besides, the TGI in assay [6] and in assay [7] was greater than 100 µM throughout.

For the compound `COc1ccc(/C=c2/sc3n(c2=O)NC2(CCC(C)CC2)NN=3)cc1` (stereo not drawn), the TGI in assay [8], in assay [1], in assay [9], in assay [2], in [3] and in [4] was greater than 100 µM in each case. For the same compound, the TGI in assay [5] and in assay [6] was greater than 100 µM each time.
